biological target: T1, wild-type FLT3 receptor (Homo sapiens, UniProt P36888); assay: Cell-based FLT3 receptor ELISA (FLT ligand-induced phosphorylation in Baf3 FLT3 cells); conditions: 100 ng/mL Flt ligand, uncertainty ±20%
T1 construct: host or cells: Baf3 (murine B cell lymphoma line), stably transfected
T1 sequence (P36888 27-993): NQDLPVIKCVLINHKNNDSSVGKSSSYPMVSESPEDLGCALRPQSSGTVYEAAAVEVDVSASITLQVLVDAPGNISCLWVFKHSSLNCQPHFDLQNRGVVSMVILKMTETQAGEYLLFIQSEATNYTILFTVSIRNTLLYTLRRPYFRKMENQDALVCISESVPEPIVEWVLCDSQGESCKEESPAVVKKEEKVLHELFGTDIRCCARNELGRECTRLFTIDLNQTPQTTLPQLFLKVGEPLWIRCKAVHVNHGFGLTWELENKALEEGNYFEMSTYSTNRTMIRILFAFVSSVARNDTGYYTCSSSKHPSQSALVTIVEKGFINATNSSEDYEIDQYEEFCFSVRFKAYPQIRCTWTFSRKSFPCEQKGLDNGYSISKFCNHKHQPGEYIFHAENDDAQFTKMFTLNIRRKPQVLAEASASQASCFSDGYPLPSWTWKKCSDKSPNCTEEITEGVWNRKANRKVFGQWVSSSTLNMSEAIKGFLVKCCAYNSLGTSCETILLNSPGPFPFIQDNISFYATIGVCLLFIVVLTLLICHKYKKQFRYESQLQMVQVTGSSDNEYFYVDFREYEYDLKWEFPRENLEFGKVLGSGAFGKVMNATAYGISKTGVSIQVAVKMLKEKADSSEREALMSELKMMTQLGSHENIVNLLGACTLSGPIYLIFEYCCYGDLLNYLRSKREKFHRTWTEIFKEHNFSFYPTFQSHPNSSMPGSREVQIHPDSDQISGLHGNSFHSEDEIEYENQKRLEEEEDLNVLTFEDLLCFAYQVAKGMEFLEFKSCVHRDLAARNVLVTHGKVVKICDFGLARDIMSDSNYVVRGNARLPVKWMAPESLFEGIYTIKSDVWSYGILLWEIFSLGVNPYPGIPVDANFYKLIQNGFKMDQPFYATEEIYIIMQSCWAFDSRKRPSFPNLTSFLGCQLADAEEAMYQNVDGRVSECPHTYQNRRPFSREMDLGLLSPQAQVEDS
Procedure: Specific cellular inhibition of FLT ligand-induced wild-type FLT3 phosphorylation was measured in the following manner: Baf3 FLT3 cells overexpressing the FLT3 receptor were obtained from Dr. Michael Heinrich (Oregon Health and Sciences University). The Baf3 FLT3 cell lines were created by stable transfection of parental Baf3 cells (a murine B cell lymphoma line dependent on the cytokine IL-3 for growth) with wild-type FLT3. Cells were selected for their ability to grow in the absence of IL-3 and in the presence of FLT3 ligand. Baf3 cells were maintained in RPMI 1640 with 10% FBS, penn/strep and 10 ng/ml FLT ligand at 37° C., 5% CO2. To measure direct inhibition of the wild-type FLT3 receptor activity and phosphorylation a sandwich ELISA method was developed similar to those developed for other RTKs (see Sadick, M D, Sliwkowski, M X, Nuijens, A, Bald, L, Chiang, N, Lofgren, J A, Wong W L T. Analysis of Heregulin-Induced ErbB2 Phosphorylation with a High-Throughput Kinase Receptor Activation Enzyme-Linked Immunsorbent Assay, Analytical Biochemistry. 1996; 235:207-214 and Baumann C A, Zeng L, Donatelli R R, Maroney A C. Development of a quantitative, high-throughput cell-based enzyme-linked immunosorbent assay for detection of colony-stimulating factor-1 receptor tyrosine kinase inhibitors. J Biochem Biophys Methods. 2004; 60:69-79.). 200 μL of Baf3FLT3 cells (1×10^6 /mL) were plated in 96 well dishes in RPMI 1640 with 0.5% serum and 0.01 ng/mL IL-3 for 16 hours prior to 1 hour compound or DMSO vehicle incubation. Cells were treated with 100 ng/mL Flt ligand (R&D Systems Cat# 308-FK) for 10 min. at 37° C. Cells were pelleted, washed and lysed in 100 ul lysis buffer (50 mM Hepes, 150 mM NaCl, 10% Glycerol, 1% Triton-X-100, 10 mM NaF, 1 mM EDTA, 1.5 mM MgCl2, 10 mM NaPyrophosphate) supplemented with phosphatase (Sigma Cat# P2850) and protease inhibitors (Sigma Cat #P8340). Lysates were cleared by centrifugation at 1000×g for 5 minutes at 4° C. Cell lysates were transferred to white wall 96 well microtiter (Costar #9018) plates coated with 50 ng/well anti-FLT3 antibody (Santa Cruz Cat# sc-480) and blocked with SeaBlock reagent (Pierce Cat#37527). Lysates were incubated at 4° C. for 2 hours. Plates were washed 3× with 200 ul/well PBS/0.1% Triton-X-100. Plates were then incubated with 1:8000 dilution of HRP-conjugated anti-phosphotyrosine antibody (Clone 4G10, Upstate Biotechnology Cat#16-105) for 1 hour at room temperature. Plates were washed 3× with 200 ul/well PBS/0.1% Triton-X-100. Signal detection with Super Signal Pico reagent (Pierce Cat#37070) was done according to manufacturer's instruction with a Berthold microplate luminometer. All data points are an average of triplicate samples. […] Inhibition and IC50 data analysis was done with GraphPad Prism using a non-linear regression fit with a multiparamater, sigmoidal dose-response (variable slope) equation.

First: COc1cc2ncnc(C3CCN(C(=O)Nc4ccc(C5=CCNCC5)cc4)CC3)c2cc1OC [Example 62, 4-(6,7-Dimethoxy-quinazolin-4-yl)-piperidine-1-carboxylic acid [4-(1,2,3,6-tetrahydro-pyridin-4-yl)-phenyl]-amide]
Second: COc1cc2ncnc(C3CCN(C(=O)Nc4ccc(OC5CCCC5)nc4)CC3)c2cc1OC [Example 69, 4-(6,7-Dimethoxy-quinazolin-4-yl)-piperidine-1-carboxylic acid (6-cyclopentyloxy-pyridin-3-yl)-amide]
The IC50 of the first is 34-fold higher: 976 nM for the first, 29 nM for the second. The second is the more potent here.

First: COc1cc2ncnc(C3CCN(C(=O)Nc4ccc(C5CCN(C(=O)OC(C)(C)C)CC5)cc4)CC3)c2cc1OC [Example 63, 4-(4-{[4-(6,7-Dimethoxy-quinazolin-4-yl)-piperidine-1-carbonyl]-amino}-phenyl)-piperidine-1-carboxylic acid tert-butyl ester]
Second: CC(C)Oc1ccc(NC(=O)N2CCC(c3ncnc4cc(OCCCN5CCCC5=O)ccc34)CC2)cc1 [Example 67, 4-{7-[3-(2-Oxo-pyrrolidin-1-yl)-propoxy]-quinazolin-4-yl}-piperidine-1-carboxylic acid (4-isopropoxy-phenyl)-amide]
The IC50 of the first is 250-fold higher: 762 nM for the first, 3 nM for the second.

First: CC(C)Oc1ccc(NC(=O)N2CCC(c3ncnc4cc(OCCCNS(C)(=O)=O)ccc34)CC2)cc1 [Example 65, 4-[7-(3-Methanesulfonylamino-propoxy)-quinazolin-4-yl]-piperidine-1-carboxylic acid (4-isopropoxy-phenyl)-amide]
Second: CS(=O)(=O)NCCCOc1ccc2c(C3CCN(C(=O)Nc4ccc(N5CCOCC5)cc4)CC3)ncnc2c1 [Example 66, 4-[7-(3-Methanesulfonylamino-propoxy)-quinazolin-4-yl]-piperidine-1-carboxylic acid (4-morpholin-4-yl-phenyl)-amide]
The IC50 of the first is 2.8-fold higher: 37 nM for the first, 13 nM for the second.

`O=C1CCCN1CCCOc1ccc2c(C3CCN(C(=O)Nc4ccc(N5CCOCC5)cc4)CC3)ncnc2c1` [Example 68, 4-{7-[3-(2-Oxo-pyrrolidin-1-yl)-propoxy]-quinazolin-4-yl}-piperidine-1-carboxylic acid (4-morpholin-4-yl-phenyl)-amide] and `O=C1CCCN1CCCOc1ccc2c(C3CCN(C(=O)Nc4ccc(N5CCOCC5)nc4)CC3)ncnc2c1` [Example 72, 4-{7-[3-(2-Oxo-pyrrolidin-1-yl)-propoxy]-quinazolin-4-yl}-piperidine-1-carboxylic acid (6-morpholin-4-yl-pyridin-3-yl)-amide] are within 1.5-fold of each other in IC50: 29 nM for the first, 28 nM for the second.

`CN1CCN(CCCOc2ccc3c(C4CCN(C(=O)Nc5ccc(N6CCOCC6)cc5)CC4)ncnc3c2)CC1` [Example 73, 4-{7-[3-(4-Methyl-piperazin-1-yl)-propoxy]-quinazolin-4-yl}-piperidine-1-carboxylic acid (4-morpholin-4-yl-phenyl)-amide] and `O=C(Nc1ccc(N2CCOCC2)cc1)N1CCC(c2ncnc3cc(OCCCN4CCCCC4)ccc23)CC1` [Example 75] are within 1.5-fold of each other in IC50: 92 nM for the first, 84 nM for the second.

Going from `O=C1CCCN1CCOc1ccc2c(C3CCN(C(=O)Nc4ccc(N5CCCC5)cc4)CC3)ncnc2c1` [Example 74, 4-{7-[2-(2-Oxo-pyrrolidin-1-yl)-ethoxy]-quinazolin-4-yl}-piperidine-1-carboxylic acid (4-pyrrolidin-1-yl-phenyl)-amide] to `O=C(Nc1ccc(N2CCOCC2)cc1)N1CCC(c2ncnc3cc(OCCCO)ccc23)CC1` [Example 77, 4-[7-(3-Hydroxy-propoxy)-quinazolin-4-yl]-piperidine-1-carboxylic acid (4-morpholin-4-yl-phenyl)-amide], the IC50 rises from 12 nM to 98 nM (8.2-fold).

With `CC(C)Oc1ccc(NC(=O)N2CCC(c3ncnc4ccc(OCCCN5CCN(C)CC5)cc34)CC2)cc1` [Example 76, 4-{6-[3-(4-Methyl-piperazin-1-yl)-propoxy]-quinazolin-4-yl}-piperidine-1-carboxylic acid (4-isopropoxy-phenyl)-amide] the IC50 was 96 nM.

Reference: US20070004660A1, “Synergistic Modulation of Flt3 Kinase Using Alkylquinolines and Alkylquinazolines” (priority 2005, published 2007)
